Laboratory results taken from patent US20230219951A1, “PYRIDINE-PYRIMIDINE DERIVATIVE, PREPARATION METHOD THEREFOR AND PHARMACEUTICAL USE THEREOF” (Jiangsu Hengrui Pharmaceuticals Co., Ltd., priority 2020, published 2023).

How the values were obtained:
[1] = Pharmacokinetic evaluation in dogs; format: in vivo; settings: both sexes, dog, plasma, po, beagle dogs, intragastric administration, 2 mg/kg
Experimental: The drug concentration in the plasma of the test animals (dogs) at different time points after intragastric administration (i.g.) of compound 18-p1 was determined by using an LC/MS/MS method. The pharmacokinetic behavior in dogs of the compound of the present disclosure was studied and its pharmacokinetic profile was evaluated.
Four beagle dogs, half male and half female, fasted overnight, supplied by animal reserve bank (999M-004). All animals were beagle dogs qualified for physical examination and healthy without abnormalities.
An amount of compound 18-p1 was weighed and dissolved in 5% by volume of DMSO, 20% by volume of PG, and 20% by volume of PEG400, and then prepared into a 0.4 mg/mL clear solution with 55% normal saline.
The administration was performed at a dose of 2.0 mg/kg and a volume of 5.0 mL/kg.
The compound 18-p1 was administered intragastrically to dogs, and 1.0 mL of blood was collected from jugular vein or forelimb vein before administration and 0.25 h, 0.5 h, 1.0 h, 2.0 h, 4.0 h, 6.0 h, 8.0 h, 12.0 h and 24.0 h after administration. The blood was placed in an EDTA-K2 anticoagulation tube and centrifuged at 10,000 rpm for 5 min (4° C.), and plasma was separated out within 1 h and then stored at −80° C. for testing. The process from blood sampling to centrifugation was performed under an ice bath. Food intake was resumed 3 h after administration.
The content of the test compounds at different concentrations in plasma of dogs after administration was determined: 25 μL of plasma of dogs at each time point after administration was taken, and 200 μL of acetonitrile (containing 50 μL of internal standard solution camptothecin, 100 ng/mL) was added; the mixture was vortexed for 5 min, and centrifuged for 10 min (4000 r/min). 0.3 μL of supernatant was taken from the plasma sample for LC/MS/MS analysis.

CYP2C19 = target: T1, CYP2C19 (Homo sapiens, UniProt P33261); experiment: Human liver microsome CYP450 inhibition, CYP2C19 (S)-mephenytoin 4'-hydroxylation; format: in vitro ADME; settings: human liver microsomes, (S)-mephenytoin probe substrate
T1 construct: tissue Corning Gentest 452161; host or cells: human liver microsomes
Experimental: (§1) The inhibition effect of the compounds of the present disclosure on the human liver microsome CYP450 enzyme was determined by the following method:
(§2) An appropriate amount of human liver microsome stock solution (20 mg/mL) was diluted to obtain a 0.25 mg/mL microsome solution with 7.5 mM MgC12 solution for later use (prepared right before use).
(§3) b. An appropriate amount of the stock solution was precisely pipetted, and diluted into series solution I at the concentrations of 10 mM, 3 mM, 1 mM, 0.3 mM, 0.03 mM and 0.003 mM with an appropriate amount of DMSO solution. An appropriate amount of the above series solution I was precisely pipetted, and diluted to obtain series solution II at the concentrations of 3 mM, 1 mM, 0.3 mM, 0.1 mM, 0.03 mM, 0.003 mM and 0.0003 mM with an appropriate amount of acetonitrile. An appropriate amount of the above series solution II was precisely pipetted, and diluted with PBS to obtain a working solution at the concentrations of 150 μM, 50 μM, 15 μM, 5μM, 1.5 μM, 0.15 μM and 0.015 μM for later use.
a. […]
(§4) The values were calculated by Graphpad Prism to obtain the IC50 values for the inhibition of drugs on CYP2C19 (S)-mephenytoin 4′-hydroxylation and CYP3A4M midazolam 1-hydroxylation metabolism in human liver microsomes, as shown in Table 6.

CYP3A4M = target: T2, CYP3A4M (Homo sapiens, UniProt P08684); experiment: Human liver microsome CYP450 inhibition, CYP3A4M midazolam 1-hydroxylation; format: in vitro ADME; settings: human liver microsomes, midazolam probe substrate
T2 construct: tissue Corning Gentest 452161; host or cells: human liver microsomes
Experimental: as §1, §2, §3
a. […]
as §4

T1 sequence (P33261 whole entry): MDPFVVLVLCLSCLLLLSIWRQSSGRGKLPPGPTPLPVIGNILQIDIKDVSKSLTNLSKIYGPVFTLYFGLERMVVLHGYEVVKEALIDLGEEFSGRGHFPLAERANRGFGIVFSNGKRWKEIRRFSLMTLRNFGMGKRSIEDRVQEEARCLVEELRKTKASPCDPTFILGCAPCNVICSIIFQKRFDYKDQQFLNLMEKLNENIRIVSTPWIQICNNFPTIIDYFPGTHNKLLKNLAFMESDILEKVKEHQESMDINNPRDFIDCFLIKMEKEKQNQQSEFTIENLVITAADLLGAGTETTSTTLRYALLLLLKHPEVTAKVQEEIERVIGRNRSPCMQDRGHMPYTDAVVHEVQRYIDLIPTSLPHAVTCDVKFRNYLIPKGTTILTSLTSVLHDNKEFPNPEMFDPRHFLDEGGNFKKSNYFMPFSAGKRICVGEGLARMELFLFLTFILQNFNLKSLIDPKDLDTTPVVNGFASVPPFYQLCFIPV
T2 sequence (P08684 whole entry): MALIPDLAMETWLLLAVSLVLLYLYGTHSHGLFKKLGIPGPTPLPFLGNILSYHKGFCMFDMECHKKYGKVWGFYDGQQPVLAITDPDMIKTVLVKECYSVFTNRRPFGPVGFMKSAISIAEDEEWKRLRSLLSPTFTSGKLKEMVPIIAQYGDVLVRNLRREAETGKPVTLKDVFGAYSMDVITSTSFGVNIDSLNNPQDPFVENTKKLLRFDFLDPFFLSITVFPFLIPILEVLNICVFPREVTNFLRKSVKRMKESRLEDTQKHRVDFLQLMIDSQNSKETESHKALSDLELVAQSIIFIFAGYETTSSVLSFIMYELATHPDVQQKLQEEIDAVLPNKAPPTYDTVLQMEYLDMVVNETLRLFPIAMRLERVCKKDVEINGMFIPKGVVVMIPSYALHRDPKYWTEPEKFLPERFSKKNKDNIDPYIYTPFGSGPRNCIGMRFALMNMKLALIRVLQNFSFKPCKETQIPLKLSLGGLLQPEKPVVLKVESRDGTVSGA

Work on `Cc1nc(N[C@H](C)c2cccc(C(F)F)c2F)c2cc([C@]3(O)CC[C@@H](O)CC3)c(=O)[nH]c2n1` [Example 18-p1, 4-(((R)-1-(3-(difluoromethyl)-2-fluorophenyl)ethyl)amino)-6-((1s,4S)-1,4-dihydroxycyclohexyl)-2-methylpyrido[2,3-d]pyrimidin-7(8H)-one] yielded a Vd/F ([1]; read-out: Apparent distribution volume Vz/F) of 2.63 L/kg, an AUC(0-t) ([1]; read-out: Area under curve AUC0-t) of 4600 ng·h/mL and a CL/F ([1]; read-out: Clearance CLz/F) of 7.64 mL/min/kg. The half-life ([1]; read-out: Half-life T½ (converted)) was 235 min, the Cmax ([1]; read-out: Plasma concentration Cmax) was 710 ng/mL and the IC50 (CYP2C19) was over 30 µM. The IC50 (CYP3A4M) was over 30 µM.
